Assay results reported in BigSolDB 2.1.

Settings: in tetrachloromethane

C[C@@H]1CC[C@@]2(OC1)O[C@H]1C[C@H]3[C@@H]4CC=C5C[C@@H](O)CC[C@]5(C)[C@H]4CC[C@]3(C)[C@H]1[C@@H]2C
Settings	solubility (mole fraction)
291.95 K	0.00286
297.45 K	0.00334
299.85 K	0.00381
302.75 K	0.00429
306.95 K	0.00487
308.95 K	0.00536
311.35 K	0.00578
313.65 K	0.0063
316.15 K	0.00676
317.95 K	0.00718
318.95 K	0.00763
320.55 K	0.00804
322.35 K	0.00857
323.65 K	0.00905
325.15 K	0.0095
326.35 K	0.0099
327.85 K	0.0105
328.95 K	0.0109
